Assay results taken from US7803801B2, “Aminopyridine compounds having Syk inhibitory activity” (Japan Tobacco, Inc., priority 2005, dated 2010).
pIC50: −log10 of the molar value. Structures can show the parent of a compound that is named as a salt. Where two headings read alike, the source gives them in different places.

Legend:
[1] = target: GST-Syk Full Protein (human) (Homo sapiens, UniProt P43405); assay: Syk kinase inhibition test (HTRF method); format: biochemical
Method in brief: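 HTRF read-out: after EDTA termination and 1 h with XL665-streptavidin and Eu-anti-phosphotyrosine, the 665/620 nm ratio was measured. The reaction ran 30 min at 20–25 °C with final 6.4 nM human GST-Syk, 250 nM biotinylated peptide, 100 μM ATP, pH 7.0 HEPES buffer, 2% DMSO.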

[2] = test system: cultured human mast cells; assay: Degranulation inhibition test using cultured human mast cells (IgE cross-linking, β-Hexosaminidase release); format: cell-based; settings: Mast cell, cultured human mast cells, read-out: human degranulation ave. IC50
Method in brief: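 Degranulation was triggered by anti-hIgE (10 μg/mL final, 30 min, 37 °C) after a 10-min compound pretreatment (DMSO 0.1%) of cord-blood CD34+-derived mast cells primed 5 days with IL-4 and IgE. β-Hexosaminidase in supernatant was measured with p-nitrophenyl-GlcNAc substrate (A405), expressed against water-lysed total; IC50 (M).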

[3] = Tables 1-x, compounds A, read-out: sykHTRF ave IC50
[4] = Tables 2-x, thiophene compounds B, read-out: sykHTRK ave IC50
[5] = Tables 2-x, thiophene compounds B

## Cc1ccnc(Nc2cccc(-c3cnc(N(C)[C@H]4CC[C@H](CC(=O)O)CC4)s3)n2)c1 [Compound A-610, [trans-4-(N-methyl-N-{5-[6-(4-methylpyridin-2-ylamino)pyridin-2-yl]thiazol-2-yl}amino)cyclohexyl]acetic acid]
[1]; [3]
  pIC50: > 7.00
[2]; Tables 1-x, compounds A
  pIC50: 6.00 to 7.00

## Cc1ccnc(Nc2cccc(-c3cnc(N(C)[C@H]4CC[C@@H](CC(=O)O)CC4)s3)n2)c1 [Compound A-611, [cis-4-(N-methyl-N-{5-[6-(4-methylpyridin-2-ylamino)pyridin-2-yl]thiazol-2-yl}amino)cyclohexyl]acetic acid]
[1]; [3]
  pIC50: > 7.00
[2]; Tables 1-x, compounds A
  pIC50: 6.00 to 7.00

## Cc1ccnc(Nc2cccc(-c3cnc(CCC4CCC(C(=O)O)CC4)s3)n2)c1 (centres unmarked) [Compound A-612, 4-(2-{5-[6-(4-methylpyridin-2-ylamino)pyridin-2-yl]thiazol-2-yl}ethyl)cyclohexanecarboxylic acid]
[1]; [3]
  pIC50: > 7.00
[2]; Tables 1-x, compounds A
  pIC50: < 6.00

## Cc1ccnc(Nc2cccc(-c3cnc(N4CCC(C)(CC(=O)O)CC4)s3)n2)c1 [Compound A-613, (4-methyl-1-{5-[6-(4-methylpyridin-2-ylamino)pyridin-2-yl]thiazol-2-yl}piperidin-4-yl)acetic acid dihydrochloride]
[1]; [3]
  pIC50: > 7.00
[2]; Tables 1-x, compounds A
  pIC50: 6.00 to 7.00

## Cc1ccnc(Nc2cccc(-c3cnc(N4CCOc5c(C(=O)O)cccc54)s3)n2)c1 [Compound A-614, 4-{5-[6-(4-methylpyridin-2-ylamino)pyridin-2-yl]thiazol-2-yl}-3,4-dihydro-2H-benzo[1,4]oxazine-8-carboxylic acid]
[1]; [3]
  pIC50: > 7.00
[2]; Tables 1-x, compounds A
  pIC50: < 6.00

## Cc1ccnc(Nc2cccc(-c3cnc(N(C)C(C)(C)c4ccc(C(=O)O)cc4)s3)n2)c1 [Compound A-616, 4-[1-methyl-1-(N-methyl-N-{5-[6-(4-methylpyridin-2-ylamino)pyridin-2-yl]thiazol-2-yl}amino)ethyl]benzoic acid dihydrochloride]
[1]; [3]
  pIC50: > 7.00
[2]; Tables 1-x, compounds A
  pIC50: 6.00 to 7.00

## Cc1ccnc(Nc2cccc(-c3cnc(N(C)c4ccc(CC(=O)O)cc4)s3)n2)c1 [Compound A-617, [4-(N-methyl-N-{5-[6-(4-methylpyridin-2-ylamino)pyridin-2-yl]thiazol-2-yl}amino)phenyl]acetic acid dihydrochloride]
[1]; [3]
  pIC50: > 7.00
[2]; Tables 1-x, compounds A
  pIC50: < 6.00

## O=C(O)CC1CCN(c2ncc(-c3cccc(Nc4cc(Cl)ccn4)n3)s2)CC1 [Compound A-620, (1-{5-[6-(4-chloropyridin-2-ylamino)pyridin-2-yl]thiazol-2-yl}piperidin-4-yl)acetic acid dihydrochloride]
[1]; [3]
  pIC50: > 7.00
[2]; Tables 1-x, compounds A
  pIC50: 6.00 to 7.00

## Cc1ccnc(Nc2cccc(-c3cnc(N4CCC(C(C)C(=O)O)CC4)s3)n2)c1 (centres unmarked) [Compound A-652, 2-(1-{5-[6-(4-methylpyridin-2-ylamino)pyridin-2-yl]thiazol-2-yl}piperidin-4-yl)propionic acid]
[1]; [3]
  pIC50: > 7.00
[2]; Tables 1-x, compounds A
  pIC50: > 7.00

## CC(=O)c1ccc(-c2cccc(Nc3cc(C)ccn3)n2)s1 [Compound B-1, 1-{5-[6-(4-methylpyridin-2-ylamino)pyridin-2-yl]thiophen-2-yl}ethanone]
[1]; [4]
  pIC50: > 7.00
[2]; [5]
  pIC50: < 6.00

## Cc1ccnc(Nc2cccc(-c3ccc(C=O)s3)n2)c1 [Compound B-2, 5-[6-(4-methylpyridin-2-ylamino)pyridin-2-yl]thiophene-2-carboxaldehyde]
[1]; [4]
  pIC50: > 7.00
[2]; [5]
  pIC50: < 6.00

## Cc1ccnc(Nc2cccc(-c3ccc(C(C)O)s3)n2)c1 (centres unmarked) [Compound B-3, 1-{5-[6-(4-methylpyridin-2-ylamino)pyridin-2-yl]thiophen-2-yl}ethanol]
[1]; [4]
  pIC50: 6.00 to 7.00
[2]; [5]
  pIC50: 6.00 to 7.00

## CC(=O)OC(C)c1ccc(-c2cccc(Nc3cc(C)ccn3)n2)s1 (centres unmarked) [Compound B-4, 1-{5-[6-(4-methylpyridin-2-ylamino)pyridin-2-yl]thiophen-2-yl}ethyl acetate acetic acid ester]
[1]; [4]
  pIC50: 6.00 to 7.00
[2]; [5]
  pIC50: < 6.00

## Cc1ccnc(Nc2cccc(-c3sccc3C)n2)c1 [Compound B-5]
[1]; [4]
  pIC50: 6.00 to 7.00
[2]; [5]
  pIC50: < 6.00

## CC(=O)c1cc(C)c(-c2cccc(Nc3cc(C)ccn3)n2)s1 [Compound B-6]
[1]; [4]
  pIC50: 6.00 to 7.00
[2]; [5]
  pIC50: 6.00 to 7.00

## CC(=NO)c1cc(C)c(-c2cccc(Nc3cc(C)ccn3)n2)s1 [Compound B-7]
[1]; [4]
  pIC50: 6.00 to 7.00
[2]; [5]
  pIC50: < 6.00

## CC(=O)Nc1cc(C)c(-c2cccc(Nc3cc(C)ccn3)n2)s1 [Compound B-8]
[1]; [4]
  pIC50: 6.00 to 7.00
[2]; [5]
  pIC50: < 6.00

## CNC(=O)c1cc(C)c(-c2cccc(Nc3cc(C)ccn3)n2)s1 [Compound B-9]
[1]; [4]
  pIC50: 6.00 to 7.00
[2]; [5]
  pIC50: 6.00 to 7.00

## CC(=O)Nc1ccc(-c2cccc(Nc3cc(C)ccn3)n2)s1 [Compound B-10, N-{5-[6-(4-methylpyridin-2-ylamino)pyridin-2-yl]thiophen-2-yl}acetamide]
[1]; [4]
  pIC50: > 7.00
[2]; [5]
  pIC50: 6.00 to 7.00

## CNC(=O)c1ccc(-c2cccc(Nc3cc(C)ccn3)n2)s1 [Compound B-11, N-methyl-5-[6-(4-methylpyridin-2-ylamino)pyridin-2-yl]thiophene-2-carboxamide]
[1]; [4]
  pIC50: > 7.00
[2]; [5]
  pIC50: 6.00 to 7.00

## Cc1ccnc(Nc2cccc(-c3ccc(CO)s3)n2)c1 [Compound B-12, {5-[6-(4-methylpyridin-2-ylamino)pyridin-2-yl]thiophen-2-yl}methanol]
[1]; [4]
  pIC50: > 7.00
[2]; [5]
  pIC50: 6.00 to 7.00

## Cc1ccnc(Nc2cccc(-c3ccc(C)s3)n2)c1 [Compound B-13]
[1]; [4]
  pIC50: 6.00 to 7.00
[2]; [5]
  pIC50: < 6.00

## Cc1ccnc(Nc2cccc(-c3ccc(CN(C)C)s3)n2)c1 [Compound B-14]
[1]; [4]
  pIC50: 6.00 to 7.00
[2]; [5]
  pIC50: 6.00 to 7.00

## CC(=NO)c1ccc(-c2cccc(Nc3cc(C)ccn3)n2)s1 [Compound B-15, 1-{5-[6-(4-methylpyridin-2-ylamino)pyridin-2-yl]thiophen-2-yl}ethanone oxime]
[1]; [4]
  pIC50: > 7.00
[2]; [5]
  pIC50: 6.00 to 7.00

## Cc1ccnc(Nc2cccc(-c3ccc(Cl)s3)n2)c1 [Compound B-16]
[1]; [4]
  pIC50: 6.00 to 7.00
[2]; [5]
  pIC50: < 6.00

## COc1ccnc(Nc2cccc(-c3ccc(C(C)=O)s3)n2)c1 [Compound B-17, 1-{5-[6-(4-methoxypyridin-2-ylamino)pyridin-2-yl]thiophen-2-yl}ethanone]
[1]; [4]
  pIC50: > 7.00
[2]; [5]
  pIC50: 6.00 to 7.00

## CON=C(C)c1ccc(-c2cccc(Nc3cc(C)ccn3)n2)s1 [Compound B-18]
[1]; [4]
  pIC50: 6.00 to 7.00
[2]; [5]
  pIC50: < 6.00

## COC(=O)c1ccc(-c2cccc(Nc3cc(C)ccn3)n2)s1 [Compound B-19]
[1]; [4]
  pIC50: 6.00 to 7.00
[2]; [5]
  pIC50: < 6.00

## Cc1ccnc(Nc2cccc(-c3ccc(C(=O)O)s3)n2)c1 [Compound B-20]
[1]; [4]
  pIC50: 6.00 to 7.00
[2]; [5]
  pIC50: < 6.00

## Cc1ccnc(Nc2cccc(-c3sc([N+](=O)[O-])cc3C)n2)c1 [Compound B-21]
[1]; [4]
  pIC50: < 6.00
[2]; [5]
  pIC50: < 6.00

## Cc1ccnc(Nc2cccc(-c3ccc(C(=O)N(C)C)s3)n2)c1 [Compound B-22]
[1]; [4]
  pIC50: 6.00 to 7.00
[2]; [5]
  pIC50: < 6.00

## Cc1ccnc(Nc2cccc(-c3ccc(C(N)=O)s3)n2)c1 [Compound B-23, 5-[6-(4-methylpyridin-2-ylamino)pyridin-2-yl]thiophene-2-carboxamide]
[1]; [4]
  pIC50: > 7.00
[2]; [5]
  pIC50: < 6.00

## Cc1ccnc(Nc2cccc(-c3ccc(C(=O)NCCO)s3)n2)c1 [Compound B-24]
[1]; [4]
  pIC50: 6.00 to 7.00
[2]; [5]
  pIC50: 6.00 to 7.00

## CNCc1ccc(-c2cccc(Nc3cc(C)ccn3)n2)s1 [Compound B-25]
[1]; [4]
  pIC50: 6.00 to 7.00
[2]; [5]
  pIC50: < 6.00
